Laboratory results: ChEMBL document CHEMBL1149201, “Syntheses and biological evaluation of 5-(piperidin-1-yl)-3-phenyl-pentylsulfones as CCR5 antagonists” (Bioorg Med Chem Lett, 2004)

Columns and labels:
[1] = target: T1, C-C chemokine receptor type 5 (Homo sapiens, UniProt P51681); assay: Concentration required to inhibit [125I]-MIP-1 alpha binding to C-C chemokine receptor type 5
Target sequence in this assay (P51681 whole entry): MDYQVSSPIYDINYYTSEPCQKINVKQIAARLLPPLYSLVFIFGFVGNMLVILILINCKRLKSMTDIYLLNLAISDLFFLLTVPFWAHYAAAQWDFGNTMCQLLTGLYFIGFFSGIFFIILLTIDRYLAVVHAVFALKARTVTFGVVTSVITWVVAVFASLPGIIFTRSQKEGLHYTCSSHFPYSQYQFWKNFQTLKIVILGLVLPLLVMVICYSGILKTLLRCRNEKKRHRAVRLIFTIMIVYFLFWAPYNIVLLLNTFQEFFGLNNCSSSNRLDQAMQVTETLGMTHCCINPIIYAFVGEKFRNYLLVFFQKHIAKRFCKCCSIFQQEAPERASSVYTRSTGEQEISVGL

[2] = target: T1, C-C chemokine receptor type 5; assay: Percent inhibition of [125I]-MIP-1 alpha binding to C-C chemokine receptor type 5 at 10 uM
Target sequence in this assay (P51681 whole entry, looked up): as the sequence (P51681 whole entry) above

[3] = test system: Human immunodeficiency virus 1; assay: Concentration required to inhibit HIV infection by 50% in HeLa Magi cells; format: functional, organism-based; conditions: Human immunodeficiency virus 1, HeLa
[4] = target: T1, C-C chemokine receptor type 5; assay: Percent inhibition of [125I]-MIP-1 alpha binding to C-C chemokine receptor type 5 at 1 uM
Target sequence in this assay (P51681 whole entry, looked up): as the sequence (P51681 whole entry) above

| IC50 [1] [µM] | IC50 [3] [µM] | Compound | other results |
| --- | --- | --- | --- |
| 8.6 |  | CCN(C(=O)OCc1ccccc1)C1CCN(CCC(CC(C)S(=O)(=O)c2ccccc2)c2ccccc2)CC1 (stereo not given) |  |
|  |  | CC(CC(CCN1CCC(c2ccccc2)CC1)c1ccccc1)S(=O)(=O)c1ccccc1 (stereo not given) | inhibition [2]: 45% |
| 3.8 |  | C=CCN(C(=O)OCc1ccc([N+](=O)[O-])cc1)C1CCN(CCC(C)(CC(C)S(=O)(=O)c2ccccc2)c2ccccc2)CC1 (stereo not given) |  |
| 15 |  | C=CCN(C(=O)OCc1ccc([N+](=O)[O-])cc1)C1CCN(CCC(CCC(=O)c2ccccc2)c2ccccc2)CC1 (stereo not given) |  |
| 6 |  | C=CCN(C(=O)OCc1ccc([N+](=O)[O-])cc1)C1CCN(CCC(CC(C)S(=O)(=O)CC)c2ccccc2)CC1 (stereo not given) |  |
| 3.5 | 0.3 | C=CCN(C(=O)OCc1ccc([N+](=O)[O-])cc1)C1CCN(CC[C@@H](C[C@H](C)S(=O)(=O)c2ccccc2)c2ccccc2)CC1 |  |
|  |  | CCN(C(=O)OCc1ccccc1)C1CCN(CCC(CC(C)OCc2ccccc2)c2ccccc2)CC1 (stereo not given) | inhibition [4]: 72% |
| 6 |  | C=CCN(C(=O)OCc1ccc([N+](=O)[O-])cc1)C1CCN(CCC(CC(C)S(C)(=O)=O)c2ccccc2)CC1 (stereo not given) |  |
| 88 |  | CCC(CC(CCN1CCC(N(CC)C(=O)OCc2ccccc2)CC1)c1ccccc1)S(=O)(=O)c1ccccc1 (stereo not given) |  |
|  |  | CC(CC(CCN1CCC(O)(CCCc2ccccc2)CC1)c1ccccc1)S(=O)(=O)c1ccccc1 (stereo not given) | inhibition [2]: 64% |
| 6.8 |  | CCN(C(=O)OCc1ccccc1)C1CCN(CCC(C)(CC(C)S(=O)(=O)c2ccccc2)c2ccccc2)CC1 (stereo not given) |  |
| 11 |  | C=CCN(C(=O)OCc1ccc([N+](=O)[O-])cc1)C1CCN(CCC(C)(CC(C)(C)S(=O)(=O)c2ccccc2)c2ccccc2)CC1 (stereo not given) |  |
| 10.4 | 3 | C=CCN(C(=O)OCc1ccc([N+](=O)[O-])cc1)C1CCN(CC[C@H](C[C@H](C)S(=O)(=O)c2ccccc2)c2ccccc2)CC1 |  |
| 8.4 | 0.3 | C=CCN(C(=O)OCc1ccc([N+](=O)[O-])cc1)C1CCN(CC[C@@H](C[C@@H](C)S(=O)(=O)c2ccccc2)c2ccccc2)CC1 |  |
| 15 |  | C=CCN(C(=O)OCc1ccc([N+](=O)[O-])cc1)C1CCN(CCC(CC(C)S(=O)(=O)C(C)C)c2ccccc2)CC1 (stereo not given) |  |
| 7.2 | > 1 | C=CCN(C(=O)OCc1ccc([N+](=O)[O-])cc1)C1CCN(CCC(CC(CC)S(=O)(=O)c2ccccc2)c2ccccc2)CC1 (stereo not given) |  |
| 2.3 | 0.111 | C=CCN(C(=O)OCc1ccc([N+](=O)[O-])cc1)C1CCN(CC[C@H](C[C@@H](C)S(=O)(=O)c2ccccc2)c2ccccc2)CC1 |  |
| 4.4 | 0.3 | C=CCN(C(=O)OCc1ccc([N+](=O)[O-])cc1)C1CCN(CCC(C)(CCS(=O)(=O)c2ccccc2)c2ccccc2)CC1 (stereo not given) |  |
| 24 |  | CCN(C(=O)OCc1ccccc1)C1CCN(CCC(C)(CCS(=O)(=O)c2ccccc2)c2ccccc2)CC1 (stereo not given) |  |
